Results taken from patent publication US8518883B2, “Method of reducing deleterious effects of ischemia by administration of a thrombopoietin receptor ligand” (MCW Research Foundation, Inc., priority 2006, dated 2013).

What was measured:
in vitro rat hearts = assay: Isolated perfused (Langendorff) rat heart, 25 min global ischemia and 180 min reperfusion: hemodynamics, infarct size, recovery of LVDP
Description: The study was directed to determining whether Tpo (0.01-10.0 ng/ml) confers immediate cardioprotection in rat hearts and the contribution of potassium channels to the underlying mechanism. Hearts from normoxic 8 week old Sprague Dawley rats (n=8/group) were isolated and perfused in the Langendorff mode. Hemodynamic function was recorded under steady-state conditions prior to 25 minutes global no flow ischemia and 180 minutes reperfusion.
Isolated heart perfusion. Isolated rat hearts were perfused with bicarbonate buffer at constant pressure in a retrograde manner and instrumented as described in Baker, et al., Am. J. Physiol. Heart Circulat. Physiol. 278:1395-1400, 2000 potassium channel blockers were added to this perfusate as needed. A 3-way tap, located immediately above the site of cannulation, allowed the entire perfusate to be diverted away from the heart to produce global, no-flow ischemia. Reperfusion was achieved by repositioning of the tap to allow perfusate to be delivered to the heart. Left ventricular function was monitored continuously throughout each experiment as described in Baker, et al., supra, 2000. End-diastolic pressure was initially set to 3 mmHg for 2 minutes. The balloon was then progressively inflated with a microsyringe to set end-diastolic pressures to 8 mmHg for the left ventricle, with developed pressure and heart rate recorded during steady-state conditions. Coronary flow rate was measured throughout the experiment by timed collections of the coronary effluent from the right side of the heart into a graduated cylinder. Coronary flow rate was expressed as milliliters per minute per gram wet weight.
Resistance to myocardial ischemia. Hearts from adult rats were perfused with bicarbonate buffer, and biventricular function was monitored continuously throughout each experiment as described in Baker, et al., supra, 2000. For concentration response studies, hearts were then perfused with Tpo (0.01-10.0 ng/ml) for 15 minutes prior to 25 minutes ischemia and 180 minutes reperfusion. For mechanism studies with potassium channel blockers, hearts were perfused with drugs for 15 minutes alone followed by 15 minutes in combination with Tpo prior to ischemia. Hearts perfused with potassium channel blockers alone in the absence of Tpo for 30 minutes prior to ischemia served as untreated controls for these studies. Recovery of post-ischemic left ventricular developed pressure was expressed as a percentage of its pre-drug, pre-ischemic value.
Assessment of ventricular function. Left ventricular function was monitored continuously throughout each experiment as described in Baker, et al., supra, 2000. Recovery of left ventricular pressure following ischemia was used to assess resistance to ischemia.
Measurement of infarct size/area at risk at 3 hours reperfusion were used to assess resistance to myocardial ischemia. For characterization of infarction size, hearts were perfused with 10 ml bicarbonate buffer containing triphenyltetrazolium chloride (SIGMA) at 37° C.
The heart was sectioned in 2 mm segments from apex to atrio-ventricular groove in a transverse fashion. Each segment was recorded and placed in formalin. After twenty-four (24) hours, the specimen was digitally photographed in a camera mount to normalize specimen-to-lens distance. Each photograph was then appended to Adobe Photoshop (Adobe™) to measure pixel density of infarcted versus non-infarcted areas. The percentage of infarction of each slide was expressed as a percentage of the entire area of the heart.
Hearts from male Sprague Dawley rats at 8 weeks of age were isolated and perfused with Tpo at 0.01, 0.1, 1.0, and 10 ng/ml for 15 minutes prior to 25 minutes global ischemia and 180 minutes reperfusion (FIG. 2). Tpo (1.0 ng/ml) reduced coronary flow rate prior to ischemia from 6±1 ml/min/g to 5±1 ml/min/g, increased left ventricular developed pressure from 119±15 mmHg to 151±19 mmHg and decreased heart rate from 240±34 beats/minute to 228±17 beats/minute. […]

Sprague Dawley rats = assay: Coronary artery ligation model, delayed cardioprotection, Tpo given 24 hours before ischemia; assay type: in vivo, rat; conditions: Tpo 0.05 micrograms/kg 24 hours before 30 min regional ischemia, 3 hours reperfusion
Description: Animals used in this study were adult male Sprague Dawley rats (200-350 g, generally 300 g). Animals were housed under standard conditions and allowed to feed ad lib.
Rats were anesthetized with sodium pentobarbital (50 mg/kg i.p.). Heparin was administered (150 U/kg i.p.) to prevent the formation of a thrombus in the coronary vasculature. A myocardial infarction was produced via the ligation of the left main artery using 6-0 prolene suture (See, e.g., Clements-Jewery, et al., supra, 2002; Farkas et al., supra, 2002). The left main coronary artery was identified and ligated with a 5-0 Prolene suture threaded through a polyethylene tube to act as an occluder. A control group included sham operated hearts in which only a suture was passed around the left main coronary artery was performed.
Animals were treated with Tpo (0.05 micrograms/kg) administered intraperitoneally and the animals allowed to recover for 24 hours prior to the onset of ischemia. Regional ischemia and reperfusion were induced by tightening the occluder and by releasing it. Hearts were then subjected to 30 minutes regional ischemia followed by 3 hours reperfusion. […]
The heart was sectioned in 2 mm segments from apex to atrio-ventricular groove in a transverse fashion. Each segment was recorded and placed in formalin. […] The percentage of infarction of each slide was expressed as a percentage of the entire area of the heart.

[1] = POST DRUG, Tpo 0.01 ng/ml for 15 min
[2] = POST DRUG, Tpo 0.1 ng/ml for 15 min
[3] = POST DRUG, Tpo 1.0 ng/ml for 15 min
[4] = POST DRUG, Tpo 10.0 ng/ml for 15 min
[5] = REPERFUSION, Tpo 0.01 ng/ml, 25 min global ischemia, 180 min reperfusion
[6] = REPERFUSION, Tpo 0.1 ng/ml, 25 min global ischemia, 180 min reperfusion
[7] = REPERFUSION, Tpo 1.0 ng/ml, 25 min global ischemia, 180 min reperfusion
[8] = REPERFUSION, Tpo 10.0 ng/ml, 25 min global ischemia, 180 min reperfusion
[9] = Tpo 0.01-10.0 ng/ml for 15 min prior to 25 min global ischemia, 180 min reperfusion

Thrombopoietin [Tpo]
Infarct size following ischemia and reperfusion (in vitro rat hearts; 'U' shaped concentration-dependent, Tpo 0.01-10.0 ng/ml): reduced | Coronary flow rate (in vitro rat hearts; [1]): 5 ± 1 mL/min/g | Heart rate (in vitro rat hearts; [1]): 202 ± 16 beats/min | Left ventricle developed pressure (in vitro rat hearts; [1]): 156 ± 13 mmHg | Coronary flow rate (in vitro rat hearts; [2]): 5 ± 1 mL/min/g | Heart rate (in vitro rat hearts; [2]): 233 ± 12 beats/min | Left ventricle developed pressure (in vitro rat hearts; [2]): 158 ± 13 mmHg | Coronary flow rate (in vitro rat hearts; [3]): 5 ± 1 mL/min/g | Heart rate (in vitro rat hearts; [3]): 228±17 beats/min | Left ventricle developed pressure (in vitro rat hearts; [3]): 151±19 mmHg | Coronary flow rate (in vitro rat hearts; [4]): 6 ± 1 mL/min/g | Heart rate (in vitro rat hearts; [4]): 220 ± 10 beats/min | Left ventricle developed pressure (in vitro rat hearts; [4]): 172 ± 26 mmHg | Coronary flow rate (in vitro rat hearts; PRE DRUG, Tpo 0.01 ng/ml group): 6 ± 1 mL/min/g | Heart rate (in vitro rat hearts; PRE DRUG, Tpo 0.01 ng/ml group): 225 ± 31 beats/min | Left ventricle developed pressure (in vitro rat hearts; PRE DRUG, Tpo 0.01 ng/ml group): 130 ± 13 mmHg | Coronary flow rate (in vitro rat hearts; PRE DRUG, Tpo 0.1 ng/ml group): 5 ± 1 mL/min/g | Heart rate (in vitro rat hearts; PRE DRUG, Tpo 0.1 ng/ml group): 228 ± 17 beats/min | Left ventricle developed pressure (in vitro rat hearts; PRE DRUG, Tpo 0.1 ng/ml group): 120 ± 15 mmHg | Coronary flow rate (in vitro rat hearts; PRE DRUG, Tpo 1.0 ng/ml group): 6 ± 1 mL/min/g | Heart rate (in vitro rat hearts; PRE DRUG, Tpo 1.0 ng/ml group): 240±34 beats/min | Left ventricle developed pressure (in vitro rat hearts; PRE DRUG, Tpo 1.0 ng/ml group): 119±15 mmHg | Coronary flow rate (in vitro rat hearts; PRE DRUG, Tpo 10.0 ng/ml group): 6 ± 1 mL/min/g | Heart rate (in vitro rat hearts; PRE DRUG, Tpo 10.0 ng/ml group): 226 ± 29 beats/min | Left ventricle developed pressure (in vitro rat hearts; PRE DRUG, Tpo 10.0 ng/ml group): 134 ± 13 mmHg | Coronary flow rate (in vitro rat hearts; [5]): 3 ± 1 mL/min/g | Heart rate (in vitro rat hearts; [5]): 184 ± 31 beats/min | Left ventricle developed pressure (in vitro rat hearts; [5]): 52 ± 9 mmHg | Coronary flow rate (in vitro rat hearts; [6]): 3 ± 1 mL/min/g | Heart rate (in vitro rat hearts; [6]): 197 ± 36 beats/min | Left ventricle developed pressure (in vitro rat hearts; [6]): 64 ± 11 mmHg | Coronary flow rate (in vitro rat hearts; [7]): 4 ± 1 mL/min/g | Heart rate (in vitro rat hearts; [7]): 204 ± 41 beats/min | Left ventricle developed pressure (in vitro rat hearts; [7]): 62 ± 8 mmHg | Coronary flow rate (in vitro rat hearts; [8]): 4 ± 1 mL/min/g | Heart rate (in vitro rat hearts; [8]): 183 ± 16 beats/min | Left ventricle developed pressure (in vitro rat hearts; [8]): 64 ± 10 mmHg | Recovery of coronary flow rate (in vitro rat hearts; Tpo 1.0 ng/ml): unaffected | Recovery of heart rate (in vitro rat hearts; Tpo 1.0 ng/ml, untreated hearts 94±6%): 85±7 % of pre-ischemic values | Optimal concentration of Tpo that afforded maximum reduction of infarct size (in vitro rat hearts; [9]): 1.0 ng/mL | Optimal concentration that afforded maximal recovery of post-ischemic ventricular developed pressure (in vitro rat hearts; [9]): 1.0 ng/mL | Recovery of left ventricular developed pressure following ischemia and reperfusion (in vitro rat hearts; bell-shaped concentration-dependent, Tpo 0.01-10.0 ng/ml): increased | Myocardial infarct size (Sprague Dawley rats): decrease
